Assay results published in ChEMBL document CHEMBL4680162, “Synthesis and pharmacological evaluation of chlorin derivatives for photodynamic therapy of cholangiocarcinoma” (Eur J Med Chem, 2020).
The source made the active and inactive calls. No cut-off for these calls is given here.

Experiments:
[1] = Absorption property of compound in poly-oxyethylene castor oil and PBS assessed as Q band log absorption coefficient by UV-visible spectrophotometric method; type: physicochemical; settings: buffer
[2] = Absorption property of the compound in DMSO assessed as Q band log absorption coefficient by UV-visible spectrophotometric method; type: physicochemical
[3] = Emission property of compound in DMSO assessed as Q band emission wavelength by […]; type: physicochemical
[4] = Emission property of compound in DMF assessed as Q band emission wavelength by […]; type: physicochemical
[5] = Induction of singlet oxygen generation in DMSO assessed as bleaching rate at 10 uM under 650 nanometer light irradiation; type: functional
[6] = Drug uptake in human QBC939 cells at 4 uM by fluorescence spectrophotometer analysis; type: ADME, cell-based; settings: qbc939, 4 µM
[7] = Drug localization in mitochondria of human QBC939 cells at 4 uM incubated for 4 hrs in dark by mito-tracker green based confocal microscopic method; type: ADME; settings: qbc939, 4 h
[8] = Drug localization in nucleus of human QBC939 cells at 4 uM incubated for 4 hrs in dark by Hoechst 33342 based confocal microscopic method; type: ADME, subcellular; settings: qbc939, 4 h
[9] = Dark toxicity in human QBC939 cells assessed as reduction in cell viability incubated under dark for 24 hrs measured after 24 hrs by MTT assay; type: cell-based; settings: read-out: TC50
[10] = Induction of apoptosis in human QBC939 cells assessed as early apoptotic cells at 2 uM by annexin V-FITC and propidium iodide staining based flow cytometric analysis (reference value: 0.01 %); type: functional
[11] = Induction of apoptosis in human QBC939 cells assessed as early apoptotic cells at 2 uM in presence of 2J/cm2 light irradiation measured after 24 hrs by annexin V-FITC and propidium iodide staining based flow cytometric analysis (reference value: 0.01 %); type: functional
[12] = Phototoxicity against human QBC939 cells assessed as reduction in cell viability irradiated with 2 J/cm2 of 650 nanometer laser light preincubated for 24 hrs in dark and measured after 24 hrs by MTT assay; type: functional, cell-based; settings: QBC939, light or radiation study
[13] = Phototoxicity in ICR mouse assessed as neck skin weight at 1 mg/kg, iv followed by 10 mW/cm2 light irradiation for 10 mins at 1 day after drug challenge and measured after 1 day of light irradiation by H and E staining based microscopic analysis (reference value: 36.5 +/- 2.4 mg); type: organism-based; settings: in vivo, 48 h, time 2 day
[14] = Phototoxicity in ICR mouse assessed as ear weight at 1 mg/kg, iv followed by 10 mW/cm2 light irradiation for 10 mins at 1 day after drug challenge and measured after 1 day of light irradiation by H and E staining based microscopic analysis (reference value: 12.4 +/- 1.5 mg); type: organism-based; settings: in vivo, 48 h, time 2 day
[15] = Phototoxicity in ICR mouse assessed as tail weight at 1 mg/kg, iv followed by 10 mW/cm2 light irradiation for 10 mins at 1 day after drug challenge and measured after 1 day of light irradiation by H and E staining based microscopic analysis (reference value: 115.6 +/- 5.6 mg); type: organism-based; settings: in vivo, 48 h, time 2 day
QBC939 = test: Photodynamic antitumor activity against human QBC939 cells xenografted in BALB/c nude mouse assessed as increase in tumor tissue damage at 1 mg/kg, iv followed by laser light irradiation at 120 J/cm2 measured after 1 day of light irradiation by H and E staining based histological analysis; type: functional, organism-based
[16] = Phototoxicity in BALB/c nude mouse xenografted with QBC939 cells assessed as change in spleen at 1 mg/kg, iv followed by laser light irradiation at 120 J/cm2 measured after 1 day of light irradiation by H and E staining based histological analysis; type: organism-based; settings: in vivo, 24 h

Activity [1]: 4.2 | Activity [2]: 4.02 | Activity [3]: 652 nm | Activity [4]: 656 nm | Drug uptake [6]: Active | Drug uptake [7]: Active | Drug uptake [8]: Not Active
Compound: COC(=O)C1(C(=O)O)C2c3nc(c(-c4ccccc4)c4ccc([nH]4)c(-c4ccccc4)c4nc(c(-c5ccccc5)c5ccc([nH]5)c3-c3ccccc3)C=C4)C21 (configuration not stated)
Activity [5]: Active | CC50 at 48 h [9]: > 8 µM | Activity [10]: 0.04% | Activity [11]: 20.99% | IC50 [12]: 1.36 µM | Activity [13]: 37.9 mg | Activity [14]: 12.8 mg | Activity [15]: 116.5 mg | Activity (QBC939): Active | Activity [16]: Non-Toxic
